Test results as given in publication PMC4738305, “Metabolism and Disposition of Aditoprim in Swine, Broilers, Carp and Rats” (Scientific Reports, 2016).

Legend:
[1] = Concentration and elimination of ADP and its metabolites in liver, kidney, muscle, fat/skin after oral ^3H-ADP for 7 d; format: in vivo, broilers; details: broiler chicken, kidney, oral, 5 mg/kg b.w.
Method: (§1) A total of 36 animals from each species (swine n = 24) were randomly assigned to six equal treatment groups and administered a single daily dose of ^3 H-ADP at 5 mg/kg b. w. (0.1 Ci/g) through oral gavage for 7 consecutive days. All the animals were housed on the basis of their group in the cages or aquaria throughout the whole study period. A group of animals was slaughtered through exsanguination under diethyl ether inhalation of anesthesia in the period of 6 h, 1, 3, 7, 14, and 21 d after the administration. The blood samples were immediately collected into the heparinized tubes and was centrifuged at 1920 × g at 4 °C for 10 min to obtain the plasma. The tissues from the heart, liver, spleen, lung, kidney, craw (broilers), stomach, intestine, fat, skin, muscle, thymus, pancreas, bile, bladder, hair (scale for carp), genital gland, adrenal glands, swim bladder (carp), brain, lymph, and bursa (broilers) were carefully excised and collected. The tissues were thoroughly rinsed with the deionized water to remove the residuary blood, blotted to dryness, and finally to perform the homogenization. In order to avoid cross-contamination the dissecting instruments were washed during the tissue procurements. The blank tissues were collected in order to provide control matrices. The total radioactivity levels in each sample were determined through LSC. The samples extracted from the plasma, bile, and tissues of the liver, kidney, muscle, and fat/skin were analyzed through LC/MS-IT-TOF and v. ARC radiometric detection for metabolite profiling. The blank samples were used as control to determine the background radioactivity or the endogenous nondrug-related ions observed within respective matrices or their extracts.
(§2) The feces and tissues (2 g) were diluted with a mixture of methanol and chloroform (1:3, v:v; 2 mL/g homogenate). This procedure was carried out in a fume hood for the safety aspects. The pH value was adjusted to 9.0 with NH4OH. The mixture was vortexed and sonicated for 5 min and 10 min, respectively, and finally the samples were centrifuged at 7690 × g for 10 min. The supernatant was aspirated and then transferred into a new centrifuge tube. The obtained pellet was again subjected to the same process of vortex, ultrasonication, extraction, and centrifugation. The combined supernatant was concentrated under a stream of nitrogen in a water bath at 40 °C. The residue was reconstituted with 0.3 mL of methanol–water (1:9, v:v) before the injection into the LC-v. ARC/MS-IT-TOF system for analysis.
(§3) ADP and its metabolites in the prepared samples were determined with a v. ARC radiometric detector and a hybrid IT/TOF mass spectrometer connected to the HPLC system (Shimadzu Corp., Kyoto, Japan). The LC system was equipped with a solvent delivery pump (LC-20AD), an auto-sampler (SIL-20AC), a degasser (DGU-20 A 3), a photodiode array detector (SPD-M20A), a communication base module (CBM-20 A), and a column oven (CTO-20AC). The chromatographic separation was achieved by using an Agilent extend-C18 column (2.1 mm × 150 mm, 5 μm) with a gradient mobile phase of A (0.01% ammonia and 5 mM ammonium acetate in water) and B (methanol) at a flow rate of 0.2 mL/min. The column temperature was maintained at 35 °C. Various HPLC methods were performed because of the large number of different metabolites to be analyzed. For the porcine sample, method 1 started at 5% B and increased to 20% B over 35 min, then to 55% B by 60 min, followed by re-equilibration for another 10 min. For the remaining samples, method 2 started at 10% B and increased to 60% B over 30 min, subsequently was maintained at 60% B for an additional 10 min, and then changed to 90% B over 2 min and maintained for 2 min. Afterwards, a re-equilibration step (decreased to 10% B over 1 min and maintained at 10% B for additional 9 min) was followed. For each matrix, more than 98% of the radioactivity injected into the column was eluted during the running time of the gradient program. […]

[2] = Metabolite profiling of ADP in excreta, plasma and bile (LC-v.ARC/MS-IT-TOF); format: in vivo, broilers
Method: (§4) Animals (4 swine, 6 broilers, 6 carp, and 3 male and 3 female rats) were housed individually in clean, suspended wire-mesh metabolism cages, designed to separate the urine from the feces (carp were raised in individual aquaria). Each animal was weighed and assigned with a permanent identification number. A single dose of ^3 H-ADP (5 mg/kg b. w., 0.1 Ci/g) was administered via the oral gavage. Excreta were collected on ice at the pre-administration, in the period of 6, 12, and 24 h on day 1 d, and afterwards, intermittently in the period of 24 h up to 14 d. The piscine excreta were collected by changing and collecting raised water. The total volume or weight of each sample was measured and homogenized. The total radioactivity levels were determined through LSC for the recovery calculations. After the preparation, the samples were analyzed through LC/MS-IT-TOF with v. ARC radiometric detection (XenoBioticLaboratories, Inc.) for metabolite profiling. The pretreatment samples were used as controls to determine the background radioactivity or the endogenous nondrug-related ions observed within respective matrices or their extracts.
as §1
(§5) For metabolite profiling, the urine and feces samples from each animals were pooled proportionally to the excreted amount in each sampling period from 0 to 6 h, 6 h to 1 d, 1 to 3 d, 3 to 7 d, and 7 to 14 d post-dose, respectively. All samples were fully homogenized before the process. The pre-dose and blank samples served as the controls for determining the background radioactivity or the endogenous, nondrug-related ions observed within respective matrices or their extracts.
(§6) The urine samples (plasma, bile and raised water for carp) was subjected to solid-phase extraction with an Oasis MCX cartridge (3 mL, […]; Waters, Milford, MA, USA) for metabolite purification and enrichment. The pH value was adjusted to 2.8–3.2 by adding 1 M hydrochloric acid (HCl), and 2 mL of the sample was transferred into MCX cartridge, which was preconditioned with 3 mL of methanol and 3 mL of 0.1 mol/L HCl solution. The cartridge was washed with 3 mL of 0.1 mol/L HCl solution and was eluted with 5 mL of NH4OH/methanol (4:96, v:v). The effluent was concentrated to dryness under a stream of nitrogen at 40 °C. […]

[3] = Concentration and elimination of ADP and its metabolites in liver, kidney, muscle, fat/skin after oral ^3H-ADP for 7 d; format: in vivo, swine; details: swine, oral, 5 mg/kg b.w.
Method: as §1, §2, §3

[4] = Metabolite profiling of ADP in excreta, plasma and bile (LC-v.ARC/MS-IT-TOF); format: in vivo, swine; details: for percentage of the individual metabolite compared with the total concentration of ADP-related: within 6 h after dosing; for Average percentage of ADP and its metabolites in total dose: Swine, Urine, single oral 5 mg/kg b.w. ^3H-ADP
Method: as §4, §1, §5, §6

[5] = Concentration and elimination of ADP and its metabolites in liver, kidney, muscle, fat/skin after oral ^3H-ADP for 7 d; format: in vivo, rats; details: rat, liver, oral, 5 mg/kg b. w.
Method: as §1, §2, §3

[6] = Metabolite profiling of ADP in excreta, plasma and bile (LC-v.ARC/MS-IT-TOF); format: in vivo, rats
Method: as §4, §1, §5, §6

[7] = rats, within 3 d; cited from earlier work

SMILES | concentration at 0.25 d [1] | percentage of the individual metabolite compared with the total concentration of ADP-related ([2]; Broilers Extra (excreta), within 6 h after dosing) | Average percentage of ADP and its metabolites in total dose ([2]; Broilers, Excreta, single oral 5 mg/kg b.w. ^3H-ADP) | concentration at 0.25 d ([3]; liver) | percentage of the individual metabolite compared with the total concentration of ADP-related ([4]; Swine Urine) | Average percentage of ADP and its metabolites in total dose [4] | concentration at 0.25 d ([3]; kidney) | concentration at 1 d ([3]; kidney) | concentration at 1 d ([3]; liver) | percentage of the individual metabolite compared with the total concentration of ADP-related ([4]; Swine Plasma) | concentration at 0.25 d [5] | Average percentage of ADP and its metabolites in total dose ([6]; Rat, Urine, single oral 5 mg/kg b.w. ^3H-ADP) | percentage of the individual metabolite compared with the total concentration of ADP-related ([6]; Rats Urine, within 6 h after dosing) | oral dose recovered [7]
COc1cc(Cc2cnc(N)nc2N)cc(O)c1N(C)C [A3, 3-OH-ADP] | 110 ± 90 ng/g | 3.5% | 6.4% | 940 ± 170 ng/g | 9.7% | 5.4% | – | – | – | – | – | – | – | –
CNc1c(O)cc(C(O)c2cnc(N)nc2N)cc1OC (stereo not shown) [A4, 3-OH-4-methylamino-ADP] | – | – | – | 320 ± 30 ng/g | 4.8% | 3.1% | 520 ± 80 ng/g | 480 ± 260 ng/g | 270 ± 40 ng/g | 4.6% | – | – | – | –
CNc1c(OC)cc(C(O)c2cnc(N)nc2N)cc1OC (stereo not drawn) [A5, 4-methylamino-α-OH-ADP] | – | – | – | 430 ± 40 ng/g | 1.2% | 1.9% | 710 ± 110 ng/g | 270 ± 150 ng/g | 260 ± 40 ng/g | 1.6% | – | – | – | –
COc1cc(C(O)c2cnc(N)nc2N)cc(O)c1N(C)C (stereo not drawn) [A6, 3-OH-α-OH-ADP] | – | – | – | 360 ± 40 ng/g | 6.4% | 3.7% | 690 ± 100 ng/g | 60 ± 30 ng/g | – | 3.8% | 10 ± 10 ng/g | 0.5% | 3.1% | –
COc1cc(Cc2cnc(N)nc2N)cc(OC)c1OC [TMP, trimethoprim] | – | – | – | – | – | – | – | – | – | – | – | – | – | more than 95 % of the oral dose

Second part, led by results:

concentration at 0.25 d [1] | percentage of the individual metabolite compared with the total concentration of ADP-related ([2]; Broilers Extra (excreta), within 6 h after dosing) | Average percentage of ADP and its metabolites in total dose ([2]; Broilers, Excreta, single oral 5 mg/kg b.w. ^3H-ADP) | concentration at 0.25 d ([3]; liver) | percentage of the individual metabolite compared with the total concentration of ADP-related ([4]; Swine Urine) | Average percentage of ADP and its metabolites in total dose [4] | concentration at 0.25 d ([3]; kidney) | concentration at 1 d ([3]; kidney) | concentration at 1 d ([3]; liver) | percentage of the individual metabolite compared with the total concentration of ADP-related ([4]; Swine Plasma) | concentration at 0.25 d [5] | Average percentage of ADP and its metabolites in total dose ([6]; Rat, Urine, single oral 5 mg/kg b.w. ^3H-ADP) | percentage of the individual metabolite compared with the total concentration of ADP-related ([6]; Rats Urine, within 6 h after dosing) | SMILES | oral dose recovered [7]
– | – | – | 790 ± 170 ng/g | 1.9% | 1.8% | – | – | 450 ± 90 ng/g | – | – | – | – | CNc1c(O)cc(Cc2cnc(N)nc2N)cc1OC [A7, 4-methylamino-3-OH-ADP] | –
– | – | – | 20 ng/g | 1.4% | 1.0% | – | – | – | – | – | – | – | COc1cc(C(O)c2cnc(N)nc2N)cc(OC)c1N(C)C (stereo not drawn) [A8, α-OH-ADP] | –
